Results on one compound are retold here after paper PMC6502838, “Low potential enzymatic hydride transfer via highly cooperative and inversely functionalized flavin cofactors” (Nature Communications, 2019).

The assay has as its target T1, 2-Naphthoyl-CoA reductase (NCR) (uncultured Desulfobacterium sp., UniProt E1YD54).
T1 construct: gene N47_G38220; Strep-tag fusion, E. coli host, monomer; TIM barrel 19-359, linker 360-400 with [4Fe-4S], FAD domain 401-503 + 626-674, alpha/beta domain 504-625
T1 sequence (E1YD54 1-670): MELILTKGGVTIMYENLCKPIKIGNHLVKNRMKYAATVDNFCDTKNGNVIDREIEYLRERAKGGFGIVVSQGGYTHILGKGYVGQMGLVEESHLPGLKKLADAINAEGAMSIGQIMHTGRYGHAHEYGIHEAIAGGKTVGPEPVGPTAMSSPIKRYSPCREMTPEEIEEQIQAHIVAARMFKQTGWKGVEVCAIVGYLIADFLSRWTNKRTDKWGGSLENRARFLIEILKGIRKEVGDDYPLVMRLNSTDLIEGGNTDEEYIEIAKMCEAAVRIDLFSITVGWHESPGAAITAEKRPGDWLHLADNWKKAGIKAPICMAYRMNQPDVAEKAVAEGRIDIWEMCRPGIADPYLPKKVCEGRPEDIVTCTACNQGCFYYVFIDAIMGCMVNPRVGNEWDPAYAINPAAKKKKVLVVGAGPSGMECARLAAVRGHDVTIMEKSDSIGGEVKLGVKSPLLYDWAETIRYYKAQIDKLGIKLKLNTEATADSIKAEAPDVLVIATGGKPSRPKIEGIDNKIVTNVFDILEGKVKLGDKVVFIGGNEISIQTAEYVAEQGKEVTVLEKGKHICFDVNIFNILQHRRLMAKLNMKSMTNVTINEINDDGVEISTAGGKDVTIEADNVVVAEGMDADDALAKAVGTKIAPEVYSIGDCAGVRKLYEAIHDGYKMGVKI
Put plainly: X-ray crystal structure, soaked, […] A. It is filed as binding. Conditions: crystals soaked with 0.5 mM NCoA, pH 6.5-7.0, 2 h, 4 C; active site, stacked on FMN; incompletely occupied.

The structures appear in SMILES notation.

On to `CC(C)(COP(=O)(O)OP(=O)(O)OC[C@H]1O[C@@H](n2cnc3c(N)ncnc32)[C@H](O)[C@@H]1OP(=O)(O)O)[C@@H](O)C(=O)NCCC(=O)NCCSC(=O)c1ccc2ccccc2c1` [NCoA], for which the “X-ray crystal structure, soaked, 2.2 A” value was “structure in complex with the substrate NCoA and the product DHNCoA were determined”.
